Laboratory results reported in BindingDB's records for doi:10.7270/Q2CN72C0 (Burnham Center For Chemical Genomics, 2010).

Target: T1, Nucleotide-binding oligomerization domain-containing protein 1 (Homo sapiens, UniProt Q9Y239)
T1 sequence (Q9Y239 whole entry): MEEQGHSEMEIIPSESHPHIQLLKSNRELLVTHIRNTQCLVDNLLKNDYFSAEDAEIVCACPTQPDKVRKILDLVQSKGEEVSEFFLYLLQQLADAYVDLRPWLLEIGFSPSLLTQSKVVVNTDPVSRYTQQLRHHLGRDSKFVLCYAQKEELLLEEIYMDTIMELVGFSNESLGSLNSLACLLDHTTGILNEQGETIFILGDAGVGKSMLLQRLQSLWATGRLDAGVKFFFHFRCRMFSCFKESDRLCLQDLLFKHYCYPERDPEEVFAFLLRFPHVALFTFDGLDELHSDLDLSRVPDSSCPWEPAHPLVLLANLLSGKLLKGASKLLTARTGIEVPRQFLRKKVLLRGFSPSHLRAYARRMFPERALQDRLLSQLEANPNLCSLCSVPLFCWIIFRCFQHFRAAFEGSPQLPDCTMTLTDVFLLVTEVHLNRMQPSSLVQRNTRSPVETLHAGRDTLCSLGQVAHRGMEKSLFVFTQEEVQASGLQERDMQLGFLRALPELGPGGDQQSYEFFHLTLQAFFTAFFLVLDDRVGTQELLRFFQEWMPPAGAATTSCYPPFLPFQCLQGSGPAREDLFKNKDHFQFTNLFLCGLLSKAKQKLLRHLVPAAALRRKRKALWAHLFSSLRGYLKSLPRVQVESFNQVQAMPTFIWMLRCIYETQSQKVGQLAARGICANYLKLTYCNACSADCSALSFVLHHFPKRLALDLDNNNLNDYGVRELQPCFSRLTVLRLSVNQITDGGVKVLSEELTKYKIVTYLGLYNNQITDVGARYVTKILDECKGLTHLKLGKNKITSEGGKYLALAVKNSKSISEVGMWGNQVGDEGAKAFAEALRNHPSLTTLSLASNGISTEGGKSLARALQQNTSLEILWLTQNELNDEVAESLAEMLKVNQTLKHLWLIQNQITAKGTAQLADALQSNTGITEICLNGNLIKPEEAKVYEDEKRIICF
Assay: inhibition of NOD1-driven NF-kB reporter – cell-based, luminescence, uHTS, primary screen (AID 1578)

Compound	EC50
Cc1ccc(O)c(/N=C/C2=CC(Cc3ccccc3)C=C([N+](=O)[O-])C2=O)c1 (stereo not given) [(6E)-6-[[(5-methyl-2-oxidanyl-phenyl)amino]methylidene]-2-nitro-4-(phenylmethyl)cyclohexa-2,4-dien-1-one]	6.21 µM
Cc1cc(CN=Nc2ncnc(N)c2[N+](=O)[O-])c(C)n1-c1ccccc1	4.14 µM
Cc1cc(N=NCc2ccccc2[N+](=O)[O-])nc(-n2nc(C)cc2C)n1 [SMR000426946]	6.21 µM
C=CCN1C(=O)C(=NNC(=S)Nc2cccc(C)c2)c2ccccc21 [1-(3-methylphenyl)-3-[(Z)-(2-oxidanylidene-1-prop-2-enyl-indol-3-ylidene)amino]thiourea]	1.09 µM
C=CCN1C(=O)C(=NNC(=S)Nc2cccc(OC)c2)c2ccccc21 [SMR000132469]	> 20 µM
Cc1cc(CN=Nc2nc(N)ncc2[N+](=O)[O-])c(C)n1-c1ccccc1F [MLS000392273]	4.64 µM
CCCOC1=CC(=O)C(C=NNC(=S)Nc2ccccc2[N+](=O)[O-])C=C1 (stereo not given) [1-(2-nitrophenyl)-3-[[(E)-(6-oxo-4-propoxy-1-cyclohexa-2,4-dienylidene)methyl]amino]thiourea]	11.9 µM
COc1ccc(NS(=O)(=O)c2ccc(N=NC(C)c3ccncc3)c([N+](=O)[O-])c2)cc1 (stereo not given) [MLS000393523]	4.33 µM
O=C1C([N+](=O)[O-])=CC(Cl)=CC1CN=Nc1ccccn1 (stereo not given) [MLS000539830]	9.12 µM
CCCCCCC1=Cc2c/c(=C3/NN=C(c4ccccc4OC)O3)c(=O)oc2=CC1=O [6-Hexyl-7-hydroxy-3-[5-(2-methoxy-phenyl)-[1,3,4]oxadiazol-2-yl]-chromen-2-one]	6.54 µM
CN1C(=O)C(=NNC(=S)Nc2ccccc2F)c2cc(S(=O)(=O)N3CCOCC3)ccc21 [SMR000314843]	> 20 µM
CCOc1ccc(-c2csc(/C(C#N)=C/C3C=CC(=O)C([N+](=O)[O-])=C3)n2)cc1 (stereo not given) [SMR000237723]	1.52 µM
O=C1C(=O)N(c2nccs2)C(c2ccccc2)C1C(=O)c1ccc2c(c1)OCCO2 (stereo not given)	11.5 µM
Cc1ccc(C)c(SCC(=O)OCC(=O)C(C#N)c2nc3ccccc3[nH]2)c1 (stereo not given) [MLS000392255]	> 20 µM
COc1cc(CN=Nc2nc3c(c(=O)n(C)c(=O)n3C)n2Cc2ccccc2)ccc1OC(=O)c1ccco1 [[4-[[(7-benzyl-1,3-dimethyl-2,6-dioxopurin-8-yl)hydrazinylidene]methyl]-2-methoxyphenyl] furan-2-carboxylate]	5.22 µM
Oc1c(Br)cc(Br)cc1CN=Nc1ccc(Cl)nn1 [MLS001171109]	> 20 µM
Oc1cccc(CN=Nc2ccc(Cl)nn2)c1O	> 20 µM
Cc1cc(SCC(=O)OCC(=O)C(C#N)c2nc3ccccc3[nH]2)c(C)cc1Br (stereo not given)	> 20 µM
CCOC(=O)c1sc(N2C(=O)C(=O)C(C(=O)c3ccco3)C2c2cccc([N+](=O)[O-])c2)nc1C (stereo not given) [MLS001082998]	> 20 µM
CCCCCCC1=Cc2c/c(=C3/NN/C(=C4/C=CC=CC4=O)O3)c(=O)oc2=CC1=O [(3E)-6-hexyl-3-[(5E)-5-(6-oxocyclohexa-2,4-dien-1-ylidene)-1,3,4-oxadiazolidin-2-ylidene]chromene-2,7-dione]	4.51 µM
